A word on the IC50: it is the concentration needed to halve the response being measured. A higher IC50 goes with weaker potency in that assay.

This assay addresses T1, NS3 protease (dengue virus type 1, UniProt A0A0K0TQ28).
T1 sequence (A0A0K0TQ28 whole entry): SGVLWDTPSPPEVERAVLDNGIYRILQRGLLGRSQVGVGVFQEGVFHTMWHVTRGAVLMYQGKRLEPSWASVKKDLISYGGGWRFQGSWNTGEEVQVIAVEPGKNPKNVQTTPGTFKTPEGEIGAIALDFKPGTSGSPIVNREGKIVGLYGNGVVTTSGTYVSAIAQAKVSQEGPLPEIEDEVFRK
Description: Functional biochemical assay to identify treatments for viral infectious disease that targets Dengue virus type 1 NS2B-NS3 protease. Utilizing a direct enzyme activity measurement method, reading the fluorescence intensity is used to characterize the relative potency of inhibitors as IC50. On the set-up: species or system Nauru/West Pac/1974.

Where “and” joins values, the source holds several entries; their conditions need not be identical. Identical values can stand only once. Bounds are passed on as bounds.

As to `N=C(N)NCCC[C@H](NC(=O)c1nccs1)C(=O)N[C@@H](CCCCN)C(=O)N[C@@H](C(N)=O)c1ccc(OCc2ccc(C(F)(F)F)cc2)cc1`, the half-inhibitory concentration (IC50) was 920 nM and 1.03 µM (2×) and 1 µM and 926 nM and 1.69 µM and 865 nM. As for `N=C(N)NCCC[C@H](NC(=O)[C@H](Cc1ccc(CN)cc1)NC(=O)c1ccccc1)B(O)O`, the figure is 0.31 µM and 0.315 µM; as for `COCCNC(=O)[C@H](Nc1ccc2c(c1)CNC2)c1cc(Cl)cc(C2CC2)c1`, greater than 99.5 µM. As for `O=C(NCC(F)F)[C@H](Nc1ccc2c(c1)CNC2)c1cc(Cl)cc(C2CC2)c1`, the figure is greater than 99.5 µM. `O=C(Nc1ccc2c(c1)CNCC2)c1cc(Cl)cc2[nH]ncc12` had an IC50 greater than 99.5 µM. As for `CC(C)(C)c1cc(Br)cc(C(=O)Nc2ccc3c(c2)CNC3)c1`, the 50% inhibitory concentration (IC50) was greater than 99.5 µM. As for `Clc1ccc2[nH]cc(Cc3ccc(-c4nn[nH]n4)cc3)c2c1`, the figure is 62.9 µM; as for `CN1Cc2ccc(NC(=O)c3cc(Cl)cc4[nH]ncc34)cc2C1`, greater than 99.5 µM.

For the compound `O=C(Nc1ccc2c(c1)CNC2)c1cccc(-c2cnco2)c1`, the IC50 was 20.3 µM. As for `CC(C)NC(=O)[C@H](Nc1ccc2c(c1)CNC2)c1cc(Cl)cc2[nH]ncc12`, the figure is 34.4 µM; as for `Cn1cc2cc(Cl)cc(C(=O)Nc3ccc4c(c3)CNC4)c2n1`, greater than 99.5 µM; as for `O=C(Nc1ccc2c(c1)CNC2)c1cc(Br)cc2ccccc12`, 83.7 µM. `O=C(Nc1ccc2c(c1)CNC2)c1cc(Cl)cc2c1CCC2` displayed a 50% inhibitory concentration (IC50) greater than 99.5 µM. `CNC(=O)[C@H](Nc1ccc2c(c1)CNC2)c1cc(Cl)cc(C2CC2)c1` registered an IC50 greater than 99.5 µM. As for `O=C1Cc2c(cccc2C(=O)Nc2ccc3c(c2)CNC3)N1`, the half-maximal inhibitory concentration (IC50) came out at 11.3 µM. In turn, `O=C(Nc1ccc2c(c1)CNC2)c1cc(Br)cc2[nH]c(-c3ccccc3)nc12` returned a half-inhibitory concentration (IC50) of 1.24 µM.

Turning to `N#C[C@H](Nc1ccc2c(c1)CNC2)c1cc(Cl)cc(C2CC2)c1`, the IC50 is greater than 99.5 µM. Turning to `O=C(Nc1cc(Cl)cc([C@H]2CN(Cc3ccccc3)C[C@@H]2c2cccc(-c3nn[nH]n3)c2)c1)OCc1ccccc1`, the concentration for half-maximal inhibition (IC50) was determined as 6.63 µM. Under `Clc1cc(CNc2ccc3c(c2)CNC3)c2cn[nH]c2c1` stands 30.9 µM. As for `CC(C)c1cc(Br)cc(C(=O)Nc2ccc3c(c2)CNC3)c1`, the figure is greater than 99.5 µM.

Consider `O=C(NC1CCOCC1)[C@H](Nc1ccc2c(c1)CNC2)c1cc(Cl)cc(C2CC2)c1`, for which the half-inhibitory concentration (IC50) was greater than 99.5 µM. Turning to `Cn1cc(CNC(=O)[C@H](Nc2ccc3c(c2)CNC3)c2cc(Cl)cc(C3CC3)c2)cn1`, the IC50 was greater than 99.5 µM. Under `O=C(Nc1cc(Cl)cc(C(=O)Nc2ccc3c(c2)CNC3)c1)OCc1ccccc1` stands greater than 99.5 µM; under `Cn1cc(CCc2nc3c(C(=O)Nc4ccc5c(c4)CNC5)cc(Cl)cc3[nH]2)cn1`, 21.6 µM. Under `O=C(Nc1ccc2c(c1)CNC2)c1cc(F)cc2[nH]ncc12` stands 68.2 µM. For `Cc1c(C(=O)Nc2cc([C@H]3CCOC3)ccn2)cc(C2CC2)n1C`, the half-maximal inhibitory concentration (IC50) is greater than 99.5 µM. Under `O=C(Nc1ccc2c(c1)CNC2)c1cc(Cl)cc2ccncc12` stands greater than 99.5 µM; under `O=C1Cc2c(cc(Br)cc2C(=O)Nc2ccc3c(c2)CNC3)N1`, 84.6 µM; under `CC(C)NC(=O)[C@H](Nc1ccc2c(c1)CNC2)c1cc(Cl)cc2[nH]c(-c3ccccc3)nc12`, 7.46 µM and 2.06 µM. Under `O=C(Nc1cc(Cl)cc([C@H](C#CCO)Nc2cccc(-c3nn[nH]n3)c2)c1)OCc1ccccc1` stands 12.7 µM. Under `O=C(Nc1ccc2c(c1)CNC2)c1cccc2[nH]c(C(F)(F)F)cc12` stands greater than 99.5 µM; under `O=C(Nc1ccc2c(c1)CNC2)c1cc(Cl)cc2cn[nH]c12`, greater than 99.5 µM; under `N#Cc1cccc(-c2nc3c(C(=O)Nc4ccc5c(c4)CNC5)cc(F)cc3[nH]2)c1`, 2.41 µM. Take `NCc1cccc([C@H]2C[C@@H]2c2cc(Cl)cc(NC(=O)OCc3ccccc3)c2)c1`: half-maximal inhibition (IC50) required 25.3 µM. As for `C=CC[C@H]1NCc2cc(NC(=O)c3cccc4c3CC(=O)N4)ccc21`, the figure is greater than 99.5 µM; as for `N#C[C@H](Nc1cccc(-c2nn[nH]n2)c1)c1cc(Cl)cc(NC(=O)OCc2ccccc2)c1`, 10 µM; as for `O=C(Nc1ccc2c(c1)CNC2)c1cc(Cl)cc2[nH]ncc12`, 69.2 µM.

For `O=C(Nc1ccc2c(c1)CNC2)c1cc(Br)cc2[nH]c(=O)[nH]c12`, 32.7 µM corresponded to half-maximal inhibition (IC50). As for `N#C[C@H](Nc1ccc2c(c1)CNC2)c1cc(Cl)cc2[nH]ncc12`, the figure is greater than 99.5 µM.

`O=C(Nc1cc(Cl)cc(C(=O)Nc2cccc([C@H]3C[C@H]3C(=O)O)c2)c1)OCc1ccccc1`: the IC50 is 25.2 µM. Under `Clc1cc([C@@H]2C[C@H]2c2cccc(C3CCNCC3)c2)c2cn[nH]c2c1` stands 5.94 µM. As for `Cc1c(C(=O)Nc2cc(-c3cccnc3)ccn2)cc(C2CC2)n1C`, the figure is 4.83 µM; as for `O=C(NCC(F)F)[C@H](Nc1ccc2c(c1)CNC2)c1cc(F)cc2[nH]ccc12`, greater than 99.5 µM.

With `C=CC[C@H]1NCc2cc(NC(=O)c3cc(Cl)cc4[nH]ncc34)ccc21`, the concentration for half-maximal inhibition (IC50) is greater than 99.5 µM. As for `Cc1nc2c(C(=O)Nc3ccc4c(c3)CNC4)cc(Cl)cc2[nH]1`, the figure is greater than 99.5 µM; as for `O=C(Nc1cc(Cl)cc(-c2ccc3[nH]c(C(=O)O)cc3c2)c1)OCc1ccccc1`, 5.82 µM. As for `O=C(NCCC1CC1)[C@H](Nc1ccc2c(c1)CNC2)c1cc(Cl)cc(C2CC2)c1`, the figure is greater than 99.5 µM; as for `N#Cc1cc2c(cc1NC(=O)c1cc(F)cc3[nH]ncc13)CNC2`, 59.7 µM; as for `O=C(Nc1ccc2c(c1)CNC2)c1cc(Cl)cc2cc[nH]c12`, greater than 99.5 µM. In turn, `C=CC[C@H]1NCc2cc(NC(=O)c3cc(F)cc4[nH]ncc34)ccc21` displayed an IC50 greater than 99.5 µM.

On to `O=C(Nc1cc(Br)c2c(c1)CNC2)c1cc(F)cc2[nH]ncc12`, for which inhibition was half-maximal at 75.5 µM (IC50). As for `C=CC[C@H](Nc1cc(Cl)cc(NC(=O)OCc2ccccc2)c1)c1cccc(-c2nn[nH]n2)c1`, the figure is 6.41 µM; as for `CNC(=O)[C@H](Nc1cc(CN)cc(C(=O)O)c1)c1cc(Cl)cc(C2CC2)c1`, greater than 99.5 µM; as for `O=C(NCC(F)F)[C@H](Nc1ccc2c(c1)CNC2)c1cc(F)cc2[nH]ncc12`, greater than 99.5 µM. Under `O=C1Cc2c(cc(F)cc2C(=O)Nc2ccc3c(c2)CNC3)N1` stands 36.2 µM. As for `O=C(Nc1cc(Cl)cc([C@H]2C[C@@H]2c2cccc(C3CCNCC3)c2)c1)OCc1ccccc1`, the figure is 6.28 µM; as for `CC(C)CNC(=O)c1cc(Cl)ccc1NS(=O)(=O)c1ccc(Oc2ccccc2Cl)cc1`, 14.4 µM.

Consider `C=CC[C@H]1NCc2cc(N[C@H](C(=O)NC(C)C)c3cc(Cl)cc4[nH]ncc34)ccc21`, for which the half-maximal inhibitory concentration (IC50) stood at 81.8 µM. Under `O=C(NC1CCOCC1)[C@H](Nc1ccc2c(c1)CNC2)c1cc(Cl)cc2[nH]ncc12` stands greater than 99.5 µM.

In turn, `CNC(=O)[C@H](Nc1cc(Cl)cc(NC(=O)OCc2ccccc2)c1)c1cccc(-c2nn[nH]n2)c1` came in with an IC50 of 46.5 µM. As for `O=C(Nc1ccc2c(c1)CNC2)c1cc(F)c2[nH]ccc2c1`, the figure is greater than 99.5 µM; as for `N[C@H]1CC[C@H](c2ccc(NC(=O)c3cc(Cl)cc(NC(=O)OCc4ccccc4)c3)cc2)C1`, 8.49 µM; as for `Cn1c(=O)[nH]c2c(C(=O)Nc3ccc4c(c3)CNC4)cc(Br)cc21`, greater than 99.5 µM. Under `OCC#C[C@H](Nc1ccc2c(c1)CNC2)c1cc(Cl)cc2[nH]ncc12` stands 19.4 µM; under `O=C(Nc1ccc2c(c1)CNC2)c1cc(F)cc2c1CCC2`, greater than 99.5 µM. Under `NCc1cccc(NC(=O)c2cc(Cl)cc(NC(=O)OCc3ccccc3)c2)c1` stands 51.1 µM; under `c1cc(C2CCN(Cc3c[nH]c4ccccc34)CC2)c2ccncc2c1`, greater than 99.5 µM. Turning to `Cc1cccc(-c2nc3c(C(=O)Nc4ccc5c(c4)CNC5)cc(Cl)cc3[nH]2)c1O`, the half-maximal inhibitory concentration (IC50) is 4.26 µM. Under `O=C(Nc1ccc2c(c1)CNC2)c1cccc2[nH]c(=O)[nH]c12` stands 65.5 µM; under `O=C(Nc1ccc2c(c1)CNC2)c1cc(Cl)cc(C(F)(F)F)n1`, 7.25 µM; under `O=C(Nc1ccc2c(c1)CNC2)c1cc(F)cc2[nH]c(-c3ccc(F)cc3)nc12`, 2.8 µM.

As to `CCc1cc(C(=O)Nc2cccc(-n3nn[nH]c3=O)c2)sc1-c1ccc(Cl)cc1`, the concentration for half-maximal inhibition (IC50) is 11.4 µM. Under `Cc1c(C(=O)Nc2cc(CCCN)ccn2)cc(C2CC2)n1C` stands 25.5 µM. Under `O=C(Nc1ccc2c(c1)CNC2)c1cccc2nc(O)ccc12` stands greater than 99.5 µM. Under `NCc1ccc([C@H]2C[C@@H]2c2cc(Cl)cc(NC(=O)OCc3ccccc3)c2)cc1` stands 8.89 µM; under `CCOCCNC(=O)[C@H](Nc1ccc2c(c1)CNC2)c1cc(Cl)cc2[nH]ncc12`, greater than 99.5 µM; under `O=C(Nc1cc(Cl)cc(C(=O)Nc2ccc3c(c2)CCNC3)c1)OCc1ccccc1`, 47.7 µM. For the compound `O=C1Cc2cc(C(=O)Nc3ccc4c(c3)CNC4)ccc2N1`, the concentration for half-maximal inhibition (IC50) was 5.26 µM and 4.47 µM.

On to `Cc1ccc(NC(=O)c2cc(Cl)cc(NC(=O)OCc3ccccc3)c2)cc1CN`, for which the half-maximal inhibitory concentration (IC50) is greater than 99.5 µM. For the compound `O=C(Nc1ccc2c(c1)CNC2)c1cc(F)cc2[nH]c(-c3ccccc3)nc12`, 3.67 µM corresponded to half-maximal inhibition (IC50).

`O=C(Nc1ccc2c(c1)CNC2)c1cc(Cl)cc2nn(-c3ccccc3)nc12`: the IC50 is 2.69 µM. Under `Cc1[nH]c2ccccc2c1CN1CCC(c2c[nH]c3ncccc23)CC1` stands greater than 99.5 µM; under `O=C(Nc1ccc2c(c1)CNC2)c1cccc2cn[nH]c12`, 49.9 µM. As for `O=C(Nc1cc2c(cc1Br)CNC2)c1cc(F)cc2[nH]ncc12`, the figure is greater than 99.5 µM; as for `O=C(Nc1ccc2c(c1)CNC2)c1ccc2[nH]ccc2c1`, greater than 99.5 µM; as for `CNC(=O)[C@H](Nc1cc(CN)cc(-c2nn[nH]n2)c1)c1cc(Cl)cc(C2CC2)c1`, greater than 99.5 µM. Compound `O=C(Nc1cc(Cl)cc(C(=O)Nc2cccc(-n3nn[nH]c3=O)c2)c1)OCc1ccccc1` displayed an IC50 of 11.6 µM.

The record behind these values is ChEMBL document CHEMBL5604064, “ASAP - DENV-1 NS2B-NS3 protease fluorescence dose response” (2024).
